# Values of other authors in patent US20110105434A1, “2-AMINO PURINE DERIVATIVES AND THEIR USE AS ANTI-HERPETIC AGENTS” (priority 2007, published 2011).
# Conditions: oral maximum dose of 800 mg 5 times per day, most patients; cited from earlier work
compound,measurement,value
"Nc1nc2c(ncn2COCCO)c(=O)[nH]1 [acyclovir, 2-amino-9-1,-dihydro-9-[(2-hydroxyethyl)methyl]-6H-purin-6-one]",blood level,about 1.61 ng/mL
